Where “and” joins values, the source holds several entries; their conditions need not be identical. Identical values can stand only once. Bridge positions count the residues as written; N and C are the ends. Square brackets hold non-standard residues; d marks the D form. Peptide text beside a SMILES is read from it. I, II: the chains in the order shown. Ava = NCCCCC(=O)O
Assays:
HIV-1 NL 4-3 [1] = assay: Infection of human peripheral blood lymphocytes (PBL) with NL 4-3 strain, p24 ELISA; format: cell-based
Procedure: Peripheral blood lymphocytes from an HIV-1 negative donor were grown as described earlier, maintained in RPMI 1640 with ultraglutamine, supplemented with IL2 (20 μg/ml), penicillin (100 U/ml), streptomycin (100 μg/ml), and 10% heat-inactivated fetal calf serum. Cells were stimulated three days in the medium supplemented with phytohemagglutinin (20 U/ml PHA P, DIFCO, Detroit Mich.).
Samples of 10^6/100 μL PBL cells were preincubated in 96-well microtiter plates in culture medium containing various concentrations of peptides. After a 1 h treatment at 37° C., 100 μl of diluted viral solution of HIV-1 was added. The cells were exposed to the virus for 1 h at 37° C. at a multiplicity of infection of 1000 TCID50 per ml. The cells were washed three times and cultured at […] of medium with the treatment in 24-well plates incubated at 37° in culture medium with the peptides in 5% CO2. The treatment was permanent before virus adsorption, during virus adsorption and after infection. The PBL culture medium was replaced every 3-4 days during three weeks always in the presence of peptide. The cell viability was assessed by cell counts and trypan-blue exclusion assay. The viral production in the culture supernatant was quantified by p24 ELISA test, as described earlier. All the experiments have been done in blind-tests. Tests have been done in duplicate.

[2] = tested on: HIV-1 89.6 subtype B dualtropic (X4R5); conditions: PBMC, Table 5
HIV-1 NL 4-3 [3] = assay: HIV-1 infection of C8166 cells (syncytia formation, p24 ELISA) with HIV-1 NL 4-3; format: cell-based; conditions: for IC50: C8166 cells, HIV-1 subtype B NL 4-3, Table 3
Procedure: (§1) HIV-1 NL 4-3 isolate (Adachi et al., 1986; Barré-Sinoussi et al., 1983) and highly cytopathic Zairian HIV-1 NDK isolate (Ellrodt et al., 1984) was propagated in permissive CEM cells (Nara et al., 1987). Uninfected CEM and C8166 (Salahuddin et al., 1983) were maintained in RPMI 1640 (R10) with ultraglutamine (cambrex, Vervier, Belgium), penicillin (100 U/ml), streptomycin (100 μg/ml), and 10% heat-inactivated fetal calf serum (Cambrex).
(§2) Samples of 3×10^5/100 μL C8166 cells were preincubated in 96-well microtiter plates in culture medium containing various concentrations of peptide. After a 1 h treatment at 37° C., 100 μl of diluted viral solution of HIV-1 was added. The cells were exposed to the virus for 1 h at 37° C. at a multiplicity of infection of 1000 TCID50 per ml. The cells were washed three times and cultured at 3×10^5/ml of R10 with the treatment in 24-well plates incubated at 37° C. C8166 culture medium was replaced at Day-4 post-infection. The treatment was permanent before virus adsorption, during virus adsorption and after infection. Assays on C8166 cells have been performed at least twice and in duplicate. Toxicity was evaluated by daily cell count and trypan-blue exclusion assay. Infection of C8166 T-cells with HIV-1 was assessed by virus-induced cytopathic effects (syncytia formation) and by quantification of cell free p24 viral protein in the culture supernatants. Measurements of HIV-1 p24^gag concentration in the culture supernatants were achieved by ELISA (ALLIANCE® HIV-1 p24 kit, Perkin Elmer, life sciences, USA).

HIV-1 NL 4-3 [4] = assay: as above; format: cell-based; set-up: key: ++, +, (+), (+)− and − represent decreasing numbers of syncitia formed; ++, +, (+), (+)− and − represent decreasing numbers of syncitia formed; ++, +, (+), (+)− and − represent decreasing numbers of syncitia formed; ++, +, (+), (+)− and − represent decreasing numbers of syncitia formed; ++, +, (+), (+)− and − represent decreasing numbers of syncitia formed; conditions: Table 1
Procedure: as §1, §2

HIV-1 NL 4-3 [5] = assay: as above; format: cell-based; set-up: key: ++, +, (+), (+)− and − represent decreasing numbers of syncitia formed.; ++, +, (+), (+)− and − represent decreasing numbers of syncitia formed.; ++, +, (+), (+)− and − represent decreasing numbers of syncitia formed.; ++, +, (+), (+)− and − represent decreasing numbers of syncitia formed.; ++, +, (+), (+)− and − represent decreasing numbers of syncitia formed; conditions: Table 2
Procedure: as §1, §2

## CC(C)C[C@H](NC(=O)[C@@H]1CCCN1C(=O)[C@H](CO)NC(=O)[C@H](Cc1ccc(O)cc1)NC(=O)CNC(=O)[C@H](CCC(N)=O)NC(=O)[C@@H](N)CCCNC(=N)N)C(=O)NCCCC[C@H](NC(=O)[C@H](CC(C)C)NC(=O)[C@@H]1CCCN1C(=O)[C@H](CO)NC(=O)[C@H](Cc1ccc(O)cc1)NC(=O)CNC(=O)[C@H](CCC(N)=O)NC(=O)[C@@H](N)CCCNC(=N)N)C(=O)NCCCCC(=O)O [RL dimer valeric acid, (RQGYSPL)2-K—NHCH2CH2CH2CH2COOH] (I: H-RQGYSPLK[Ava]-OH / II: H-RQGYSPL; amide I:8-II:C; N-terminus assumed)
HIV-1 NL 4-3 [1]; PBL, NL 4-3 strain, Table 4
  IC50: 5 nM
  IC100: 0.05 µM
[2]
  IC50: 10 nM
  IC100: 0.5 µM
HIV-1 NL 4-3 [3]
  IC50: 50 nM

## CC(C)C[C@H](NC(=O)[C@@H]1CCCN1C(=O)[C@H](CO)NC(=O)[C@H](Cc1ccc(O)cc1)NC(=O)CNC(=O)[C@H](CCC(N)=O)NC(=O)[C@@H](N)CCCNC(=N)N)C(=O)NCCCCC(=O)O [RL monomer valeric acid, RQGYSPL-NHCH2CH2CH2CH2COOH] (H-RQGYSPL[Ava]-OH)
HIV-1 NL 4-3 [1]; PBL, NL 4-3 strain, Table 4
  IC50: 10 nM
  IC100: 1 µM
[2]
  IC50: 10 nM
  IC100: 0.1 µM
HIV-1 NL 4-3 [3]
  IC50: 50 nM

## CC(C)C[C@H](NC(=O)[C@@H]1CCCN1C(=O)[C@H](CO)NC(=O)[C@H](Cc1ccc(O)cc1)NC(=O)CNC(=O)[C@H](CCC(N)=O)NC(=O)[C@@H](N)CCCNC(=N)N)C(=O)NCCCC[C@H](NC(=O)[C@H](CC(C)C)NC(=O)[C@@H]1CCCN1C(=O)[C@H](CO)NC(=O)[C@H](Cc1ccc(O)cc1)NC(=O)CNC(=O)[C@H](CCC(N)=O)NC(=O)[C@@H](N)CCCNC(=N)N)C(=O)NCCCC[C@H](NC(=O)[C@H](CCCCNC(=O)[C@H](CC(C)C)NC(=O)[C@@H]1CCCN1C(=O)[C@H](CO)NC(=O)[C@H](Cc1ccc(O)cc1)NC(=O)CNC(=O)[C@H](CCC(N)=O)NC(=O)[C@@H](N)CCCNC(=N)N)NC(=O)[C@H](CC(C)C)NC(=O)[C@@H]1CCCN1C(=O)[C@H](CO)NC(=O)[C@H](Cc1ccc(O)cc1)NC(=O)CNC(=O)[C@H](CCC(N)=O)NC(=O)[C@@H](N)CCCNC(=N)N)C(=O)NCCCC[C@H](NC(=O)[C@H](CCCCNC(=O)[C@H](CCCCNC(=O)[C@H](CC(C)C)NC(=O)[C@@H]1CCCN1C(=O)[C@H](CO)NC(=O)[C@H](Cc1ccc(O)cc1)NC(=O)CNC(=O)[C@H](CCC(N)=O)NC(=O)[C@@H](N)CCCNC(=N)N)NC(=O)[C@H](CC(C)C)NC(=O)[C@@H]1CCCN1C(=O)[C@H](CO)NC(=O)[C@H](Cc1ccc(O)cc1)NC(=O)CNC(=O)[C@H](CCC(N)=O)NC(=O)[C@@H](N)CCCNC(=N)N)NC(=O)[C@H](CCCCNC(=O)[C@H](CC(C)C)NC(=O)[C@@H]1CCCN1C(=O)[C@H](CO)NC(=O)[C@H](Cc1ccc(O)cc1)NC(=O)CNC(=O)[C@H](CCC(N)=O)NC(=O)[C@@H](N)CCCNC(=N)N)NC(=O)[C@H](CC(C)C)NC(=O)[C@@H]1CCCN1C(=O)[C@H](CO)NC(=O)[C@H](Cc1ccc(O)cc1)NC(=O)CNC(=O)[C@H](CCC(N)=O)NC(=O)[C@@H](N)CCCNC(=N)N)C(=O)NCCC(=O)O [RL, (RQGYSPL)8-K4-K2-K-βA-OH, reference compound]
HIV-1 NL 4-3 [1]; PBL, NL 4-3 strain, Table 4
  IC50: 5 nM
  IC100: 0.1 µM
[2]
  IC50: 6 nM
  IC100: 0.05 µM
HIV-1 NL 4-3 [3]
  IC50: 10 nM

## C[C@H](NC(=O)[C@H](CCCNC(=N)N)NC(=O)CNC(=O)[C@@H]1CCCN1C(=O)CN)C(=O)N[C@@H](Cc1ccccc1)C(=O)NCCCC[C@H](NC(=O)[C@H](Cc1ccccc1)NC(=O)[C@H](C)NC(=O)[C@H](CCCNC(=N)N)NC(=O)CNC(=O)[C@@H]1CCCN1C(=O)CN)C(=O)NCCCCC(=O)O [SPC3 dimer valeric acid, (GPGRAF)2-K—NHCH2CH2CH2CH2COOH] (I: H-GPGRAFK[Ava]-OH / II: H-GPGRAF; amide I:7-II:C; N-terminus assumed)
[2]
  IC50: 8 nM
  IC100: 0.5 µM
HIV-1 NL 4-3 [3]
  IC50: 50 nM

## SPC3-Tat [S3]
HIV-1 NL 4-3 [1]; on PBL
  IC100: 0.1 µM
HIV-1 NL 4-3 [4]; 0.5 μM
  Day 4 syncitia formed: −
  Day 5 syncitia formed: −
  Day 6 syncitia formed: −
  Day 7 syncitia formed: + and (+)
HIV-1 NL 4-3 [4]; 1 μM
  Day 4 syncitia formed: −
  Day 5 syncitia formed: −
  Day 6 syncitia formed: −
  Day 7 syncitia formed: − and +
HIV-1 NL 4-3 [4]; 2 μM
  Day 4 syncitia formed: −
  Day 5 syncitia formed: −
  Day 6 syncitia formed: −
  Day 7 syncitia formed: −
HIV-1 NL 4-3 [4]; 5 μM
  Day 4 syncitia formed: −
  Day 5 syncitia formed: −
  Day 6 syncitia formed: −
  Day 7 syncitia formed: −
HIV-1 NL 4-3 [5]; 0.05 μM
  Day 4 syncitia formed: (+)
  Day 5 syncitia formed: +
  Day 6 syncitia formed: ++
  Day 7 syncitia formed: ++
HIV-1 NL 4-3 [5]; 0.1 μM
  Day 4 syncitia formed: (+)
  Day 5 syncitia formed: − and +
  Day 6 syncitia formed: +
  Day 7 syncitia formed: ++
HIV-1 NL 4-3 [5]; 0.5 μM
  Day 4 syncitia formed: −
  Day 5 syncitia formed: −
  Day 6 syncitia formed: −
  Day 7 syncitia formed: (+) and +
HIV-1 NL 4-3 [5]; 1 μM
  Day 4 syncitia formed: −
  Day 5 syncitia formed: −
  Day 6 syncitia formed: −
  Day 7 syncitia formed: −
HIV-1 NL 4-3 [3]; Day 4, 0.1 μM, Table 2
  P 24: 61 pg/mL and 33 pg/mL
HIV-1 NL 4-3 [3]; Day 4, 2 μM, Table 1
  P 24: NEG
HIV-1 NL 4-3 [3]; Day 4, 5 μM, Table 1
  P 24: NEG
HIV-1 NL 4-3 [3]; Day 7, 0.05 μM, Table 2
  P 24: 3664 pg/mL and 2064 pg/mL
HIV-1 NL 4-3 [3]; Day 7, 0.1 μM, Table 2
  P 24: 787 pg/mL and 496 pg/mL

— US20060229433A1, “Modified antiviral peptides with increased activity and cell membrane affinity” (priority 2003, published 2006)
